Publication PMC12817919 (Journal of Virology, 2025)
Read-outs that look alike come from different tables or passages of the source.

Tests used:
[1] = system: RSV A2; test: microbe, parasite or virus in culture; assay type: cell-based; settings: human respiratory syncytial virus; HEp-2 (RSV A2, MOI = 0.2), 72 h, FFA
[2] = system: RSV ON1; test: microbe, parasite or virus in culture; assay type: cell-based; settings: human respiratory syncytial virus; HEp-2 (RSV ON1, MOI = 0.2), 72 h, FFA
[3] = in vitro; assay type: cell-based; settings: human; HEp-2 cells, 72 h, CCK8
Experimental: HEp-2 cells (1.3 × 10^4) were seeded in 96-well plates for 20 h. The indicated compounds in a 3-fold dilution series were added to the cells, and three wells were performed in parallel. After 72 h, the cells were incubated with DMEM containing 10% FBS and CCK8 reagent (Beyotime Biotechnology, cat#C0038) for 30 min at 37°C. The absorbance at 450 nm and 600 nm was read using the PerkinElmer EnSight reader.

[4] = system: RSV A2; test: GFP-split cell-cell fusion assay mediated by RSV infection; assay type: cell-based, respiratory syncytial virus (RSV); settings: RSV A2 MOI 1; 5, 1, 0.5 µM, 24 h, HEK293T GFP-split cells
Experimental: (§1) Cell–cell fusion assays were performed using a split-GFP system (GFP1-10 and GFP11) ([76]). Briefly, HEK293T cells stably expressing GFP1-10 were transfected with 1,000 ng of plasmids encoding either wild-type F or F mutants containing various amino acid substitutions. Alternatively, the cells were infected with RSV and treated with 0.1% DMSO or the indicated compounds at concentrations of 5, 1, and 0.5 µM. Then, the transfected or infected cells were co-cultured with HEK293T cells stably expressing GFP11 at a 1:1 ratio (8 × 10^4 cells/well) for 24 h in a 96-well plate. Images were acquired per well on an Operetta CLS High-Content Screening System (PerkinElmer).

[5] = system: RSV ON1-GFP; test: Antiviral efficacy in primary human bronchial epithelial cells (GFP intensity); assay type: cell-based, respiratory syncytial virus (RSV); settings: HBECs, MOI 2, 1 µM, 72 h
Experimental: The inhibitory effects of compounds on RSV ON1-GFP were evaluated in HBEC. […] At 72 h post-infection, the infected cells were visualized using an EVOS M5000 Cell Imaging System (Thermo Fisher Scientific).

[6] = system: RSV ON1-GFP; test: Antiviral drug assay using lung airway organoids; settings: 96 h, MOI 1
Excerpt: In brief, HBECs were initially cultured in PneumaCult-Ex Plus Medium ([sequence] Technologies, cat#05040), then seeded at 2 × 10⁵ cells/well into anti-adherence rinsing solution ([sequence] Technologies, cat#07010)-treated AggreWell400 24-well plates ([sequence] Technologies, cat#34415). They were maintained in PneumaCult Apical-Out Airway Organoid Medium ([sequence] Technologies, cat#100-0620) for 6 days. Subsequently, the cells were transferred to similarly treated flat-bottom 24-well plates and cultured in the same medium for an additional 9 days.
The airway organoids were infected with RSV ON1-GFP at an MOI of 1 for 4 h. […] At 96 h post-infection, cell-free medium was harvested, and a TCID50 assay was performed to determine the viral titer. The organoids were fixed in parallel in 4% PFA, permeabilized with 0.5% Triton X-100 (1 h), blocked with 5% BSA (Macklin, cat#B824162; 2 h), and incubated overnight at 4°C with primary antibodies: Goat anti-Human p63/TP73L polyclonal antibody (R&D Systems, cat#AF1916), Rabbit anti-Human Mucin 5AC polyclonal antibody (Abways, cat#CY6826), and Mouse anti-acetylated tubulin monoclonal antibody (Sigma-Aldrich, cat#T7451). […] The GFP fluorescence intensity was quantified using ImageJ analysis software (RRID: SCR_003070; National Institutes of Health, NIH).

[7] = target: T1, RSV F protein (Human respiratory syncytial virus A, UniProt P03420); assay type: cell-based; parameters: expressed in transfected cells; host or cells: HEK293T; settings: HEK293T cells expressing RSV F, western blot
Target sequence in this assay (P03420 137-574): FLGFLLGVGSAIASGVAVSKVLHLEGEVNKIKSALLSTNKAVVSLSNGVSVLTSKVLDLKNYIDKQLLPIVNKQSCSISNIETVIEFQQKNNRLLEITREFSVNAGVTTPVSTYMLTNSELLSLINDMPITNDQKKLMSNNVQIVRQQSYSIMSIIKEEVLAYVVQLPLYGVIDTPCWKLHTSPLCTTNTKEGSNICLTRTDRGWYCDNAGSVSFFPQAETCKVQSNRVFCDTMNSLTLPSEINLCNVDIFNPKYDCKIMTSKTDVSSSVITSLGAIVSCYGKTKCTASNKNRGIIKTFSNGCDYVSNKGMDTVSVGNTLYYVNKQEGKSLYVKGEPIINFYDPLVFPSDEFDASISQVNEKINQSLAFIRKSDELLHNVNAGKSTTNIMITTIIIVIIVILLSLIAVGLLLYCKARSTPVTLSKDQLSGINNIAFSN
Target sequence in this assay (P03420 26-109): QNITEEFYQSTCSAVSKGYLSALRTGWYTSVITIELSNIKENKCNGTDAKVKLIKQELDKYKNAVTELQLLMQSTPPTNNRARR

[8] = target: T1, RSV F protein; assay type: cell-based; parameters: HEp-2 cells were infected with RSV (MOI = 10); endogenous in cells; host or cells: HEp-2 cells infected with RSV (viral protein made in the infected cell); settings: HEp-2, RSV MOI 10, 1 µM, 18 h
Target sequence in this assay (P03420 137-574): as the sequence (P03420 137-574) above
Target sequence in this assay (Q96SW2 whole entry, further chain): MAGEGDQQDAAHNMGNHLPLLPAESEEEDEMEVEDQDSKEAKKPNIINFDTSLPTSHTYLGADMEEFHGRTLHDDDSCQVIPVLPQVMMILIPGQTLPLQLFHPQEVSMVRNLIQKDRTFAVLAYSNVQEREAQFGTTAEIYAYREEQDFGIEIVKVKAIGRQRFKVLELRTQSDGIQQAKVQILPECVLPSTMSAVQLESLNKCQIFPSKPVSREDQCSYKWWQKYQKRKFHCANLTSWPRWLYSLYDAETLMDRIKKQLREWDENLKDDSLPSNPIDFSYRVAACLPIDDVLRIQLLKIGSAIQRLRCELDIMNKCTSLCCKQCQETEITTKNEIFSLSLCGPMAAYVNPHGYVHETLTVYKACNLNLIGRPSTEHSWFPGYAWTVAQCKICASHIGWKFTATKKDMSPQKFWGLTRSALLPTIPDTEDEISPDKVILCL
Target sequence in this assay (P03420 26-109): as the sequence (P03420 26-109) above

[9] = system: wild-type RSV; test: microbe, parasite or virus in culture; assay type: cell-based
[10] = system: RSV K394R; assay type: cell-based, respiratory syncytial virus (RSV); settings: for Fold resistance (RSV K394R): fold change in the EC50 relative to that of wild-type RSV
[11] = system: RSV K399N; assay type: cell-based, respiratory syncytial virus (RSV); settings: for Fold resistance (RSV K399N): fold change in the EC50 relative to that of wild-type RSV
[12] = system: RSV T400A; assay type: cell-based, respiratory syncytial virus (RSV); settings: for Fold resistance (RSV T400A): fold change in the EC50 relative to that of wild-type RSV
[13] = system: RSV A2 P18 (Control); test: Antiviral activity against passaged virus in HEp-2 cells (FFA); assay type: cell-based, respiratory syncytial virus (RSV); settings: human respiratory syncytial virus, HEp-2, MOI 0.2, FFA
[14] = system: Lonafarnib escape virus populations P18 (RSV A2); test: as above; assay type: cell-based, respiratory syncytial virus (RSV); settings: human respiratory syncytial virus, HEp-2, MOI 0.2, FFA
[15] = system: RSV ON1 P18 (Control); test: as above; assay type: cell-based, respiratory syncytial virus (RSV); settings: human respiratory syncytial virus, HEp-2, MOI 0.2, FFA
[16] = system: Lonafarnib escape virus populations P18 (RSV ON1); test: as above; assay type: cell-based, respiratory syncytial virus (RSV); settings: human respiratory syncytial virus, HEp-2, MOI 0.2, FFA
[17] = system: RSV V127G; assay type: cell-based, respiratory syncytial virus (RSV)
[18] = system: RSV L141F; assay type: cell-based, respiratory syncytial virus (RSV)
[19] = system: RSV T400I; assay type: cell-based, respiratory syncytial virus (RSV)
[20] = system: RSV F488L; assay type: cell-based, respiratory syncytial virus (RSV)
[21] = system: DS-Cav1 mutants (T335I, K394R, S398L, K399N, T400A, and D401E); assay type: binding; settings: D401E compared with DS-Cav1
[22] = system: RSV F protein mutants; test: GFP-split cell-cell fusion assay mediated by transfected F or F mutants; assay type: cell-based, respiratory syncytial virus (RSV); settings: 5, 1, 0.5 µM, 24 h, HEK293T GFP-split cells
Experimental: as §1

[23] = system: RSV; settings: oral administration; cited from earlier work
[24] = human respiratory syncytial virus, wild-type RSV, Table 2 cross-resistance experiment, HEp-2, read-out: EC50 RSV
[25] = Table 2 cross-resistance experiment, HEp-2, read-out: EC50 RSV K394R
[26] = Table 2 cross-resistance experiment, HEp-2, read-out: EC50 RSV K399N
[27] = Table 2 cross-resistance experiment, HEp-2, read-out: EC50 RSV T400A

`O=C1CCC(N2C(=O)c3cccc(NCCOCCOCCOCCC(=O)N4CCC(CC(=O)N5CCC([C@H]6c7ncc(Br)cc7CCc7cc(Cl)cc(Br)c76)CC5)CC4)c3C2=O)C(=O)N1` (stereo partly drawn) [compound 0179841, 4-((2-(2-(2-(3-(4-(2-(4-((R)−3,10-dibromo-8-chloro-6,11-dihydro-5H-benzo[5,6]cyclohepta[1,2-b]pyridin-11-yl)piperidin-1-yl)−2-oxoethyl)piperidin-1-yl)−3-oxopropoxy)ethoxy)ethoxy)ethyl)amino)−2-(2,6-dioxopiperidin-3-yl)isoindoline-1,3-dione] gave an EC50 [1] of 0.45 ± 0.04 µM, an EC50 [2] of 0.46 ± 0.03 µM and a CC50 [3] of over 100 µM. For the same molecule, the “inhibition of RSV-induced cell-cell fusion activity” value [4] was “significantly inhibited”, the “RSV infection level (GFP intensity)” value [5] was “significant decrease in the RSV infection level” and the “reduction of viral titers compared with the DMSO control” value ([6]; 5 µM, TCID50 of supernatant) was “more than 100 fold”. The “viral loads and protein expression in lung airway organoids” value ([6]; 5, 1, 0.5 µM) was “significantly reduced viral loads and protein expression in a dose-dependent manner”, the “effect on F protein levels” value [7] was “time- and concentration-dependent” and the “degradation of the F protein during RSV infection” value [8] was “induced significant degradation of the F protein”.

In the case of `Cc1cn2nc([C@@H]3CCCCN3C(=O)c3cc(Cl)ccc3NS(C)(=O)=O)cc2nc1N1CC[C@H](N)C1` [GS-5806], the EC50 [9, 24] is reported as 0.0001 µM, the EC50 [10, 25] is reported as 0.193 µM and the “Fold resistance (RSV K394R)” value [10] is reported as 1,673.9. The EC50 [11, 26] was 0.0044 µM, the “Fold resistance (RSV K399N)” value [11] was 38.3 and the EC50 [12, 27] was 0.0288 µM. For the same molecule, the “Fold resistance (RSV T400A)” value [12] was 250.1.

With `CS(=O)(=O)CCCn1c(Cn2c(=O)n(CC(F)(F)F)c3ccncc32)cc2cc(Cl)ccc21` [JNJ-53718678] the EC50 ([9]; wild-type RSV, Table 2 cross-resistance experiment, HEp-2, read-out: EC50 RSV) was 0.0007 µM, the EC50 [10, 25] was 10.1 µM and the “Fold resistance (RSV K394R)” value [10] was 15,582.2. The EC50 [11, 26] was 0.248 µM, the “Fold resistance (RSV K399N)” value [11] was 382.2 and the EC50 [12, 27] was 11.7 µM. For the same molecule, the “Fold resistance (RSV T400A)” value [12] was 17,920.3.

With `NCc1ccc2c(c1)nc(CN1C(=O)C3(CC3)c3ccc(F)cc31)n2CCCC(F)(F)F` [RV521] the EC50 [9, 24] was 0.0001 µM, the EC50 [10, 25] was 0.179 µM and the “Fold resistance (RSV K394R)” value [10] was 2,462.8. The EC50 [11, 26] was 0.0004 µM, the “Fold resistance (RSV K399N)” value [11] was 5.4 and the EC50 [12, 27] was 0.0126 µM. For the same molecule, the “Fold resistance (RSV T400A)” value [12] was 173.6.

For `Cc1ccc2nc(N3CCS(=O)(=O)c4ccccc4C3)nc(NCC3(N)COC3)c2c1` [AK0529], the EC50 [9, 24] was 0.0013 µM, the EC50 [10, 25] was 6.55 µM and the “Fold resistance (RSV K394R)” value [10] was 4,983.3. The EC50 [11, 26] was 2.25 µM, the “Fold resistance (RSV K399N)” value [11] was 1,713.3 and the EC50 [12, 27] was 9.85 µM. The “Fold resistance (RSV T400A)” value [12] was 7,491.3.

Work on `NC(=O)N1CCC(CC(=O)N2CCC([C@H]3c4ncc(Br)cc4CCc4cc(Cl)cc(Br)c43)CC2)CC1` [Lonafarnib] yielded an EC50 ([13]; HEp-2, Lineage 1) of 0.04 µM, an EC50 ([13]; HEp-2, Lineage 2) of 0.05 µM and an EC50 ([13]; HEp-2, Lineage 3) of 0.04 µM. For the same molecule, the EC50 ([14]; HEp-2, Lineage 1) was 0.8 µM, the EC50 ([14]; HEp-2, Lineage 2) was 1.08 µM and the EC50 ([14]; HEp-2, Lineage 3) was 0.79 µM. The EC50 ([15]; HEp-2, Lineage 1) was 0.09 µM, the EC50 ([15]; HEp-2, Lineage 2) was 0.13 µM and the EC50 ([15]; HEp-2, Lineage 3) was 0.13 µM. The EC50 ([16]; HEp-2, Lineage 1) was 3.36 µM, the EC50 ([16]; HEp-2, Lineage 2) was 4.1 µM and the EC50 ([16]; HEp-2, Lineage 3) was 3.5 µM. For the same molecule, the EC50 ([9]; human respiratory syncytial virus, 72 h, Wild-type, HEp-2, MOI 0.2, 3 days, FFA, read-out: EC50) was 0.046 ± 0.01 µM, the EC90 ([9]; human respiratory syncytial virus, HEp-2, Wild-type, EC90 = 9^1/HillSlope*EC50) was 0.19 ± 0.12 µM and the EC50 [9, 24] was 0.0456 µM. It also gave an EC90 ([17]; EC90 = 9^1/HillSlope*EC50) of 0.177 ± 0.038 µM, an EC50 ([17]; HEp-2, MOI 0.2, 3 days, FFA) of 0.044 ± 0.005 µM and an EC90 ([18]; EC90 = 9^1/HillSlope*EC50) of 0.631 ± 0.125 µM. It also gave an EC50 ([18]; HEp-2, MOI 0.2, 3 days, FFA) of 0.079 ± 0.019 µM, an EC90 ([10]; K394R, EC90 = 9^1/HillSlope*EC50) of 15 ± 7.33 µM and an EC50 ([10]; K394R, HEp-2, MOI 0.2, 3 days, FFA, read-out: EC50) of 5.13 ± 1.69 µM. For the same molecule, the EC50 [10, 25] was 3.84 µM, the EC90 ([11]; K399N, EC90 = 9^1/HillSlope*EC50) was 1.55 ± 0.277 µM and the EC50 ([11]; K399N, HEp-2, MOI 0.2, 3 days, FFA, read-out: EC50) was 0.45 ± 0.032 µM. The EC50 [11, 26] was 0.406 µM, the EC90 ([12]; T400A, EC90 = 9^1/HillSlope*EC50) was 4.64 ± 0.44 µM and the EC50 ([12]; T400A, HEp-2, MOI 0.2, 3 days, FFA, read-out: EC50) was 1.52 ± 0.127 µM. The EC50 [12, 27] was 1.12 µM, the EC90 ([19]; EC90 = 9^1/HillSlope*EC50) was 4.61 ± 0.663 µM and the EC50 ([19]; HEp-2, MOI 0.2, 3 days, FFA) was 1.51 ± 0.184 µM. It also gave an EC90 ([20]; EC90 = 9^1/HillSlope*EC50) of 1.9 ± 0.16 µM, an EC50 ([20]; HEp-2, MOI 0.2, 3 days, FFA) of 0.7 ± 0.069 µM and an EC50 [1] of 0.04 ± 0.002 µM. The EC50 [2] was 0.06 ± 0.02 µM, the CC50 [3] was 17.9 ± 1.13 µM and the “binding affinity for lonafarnib (SPR)” value [21] was “significantly decreased the binding affinity”. For the same molecule, the “inhibition of mutant-induced cell-cell fusion activity” value ([22]; T335I, S398L, K394R, K399I/N, T400A/I, and D401E mutants) was “did not or only slightly inhibit”, the “inhibition of mutant-induced cell-cell fusion activity” value ([22]; V76A, K80N, L119I, and D392G/N mutants) was “significantly inhibited” and the “RSV load in murine infection model” value [23] was “dose-dependent reduction in the RSV load”. The “effect on F protein levels” value [7] was “did not affect F protein levels”.
